89 compounds from a melting point compilation (Tetko et al.; mined from patent text by program, amines drawn as free bases though some values may be those of a salt) can be followed below.

Some results are limits rather than exact numbers.

By melting point is commonly meant the temperature, or range, at which the solid turns liquid. Consider `CC(=O)Oc1c(C)cc(N(C)C(=O)OC(C)(C)C)c(C)c1C`, for which the melting point was in the range of 103 to 104 °C. For `CC1CC2CC(Cc3ccc(O)cc3)CCC2NC1=O` (centres undefined) the value was 217 to 223 °C. On to `CCCC(=O)c1cnc2c(OCCCN(C)Cc3ccccc3)cccc2c1Nc1ccccc1C`, for which the melting point was 100 to 102 °C. For the compound `C#CCS(=O)c1ncc(Cl)cn1` (centres undefined), the melting point amounted to 92 °C. `N#Cc1ccc(N2C(=O)C3CSCN3C2=O)c2ccccc12` (centres undefined) came in with a melting point of 223 to 225 °C. For the compound `O=C(CN1CCCC1)Nc1ccc(-c2cc(-c3c[nH]nc3-c3ccccn3)ccn2)cc1`, the melting point turned out to be 188 °C.

As for `CC(=O)OCC(COC(C)=O)NC(=O)c1cc(NC(=O)CCl)cc(C(=O)NC(COC(C)=O)COC(C)=O)c1`, the melting point fell in the range of 135 to 137 °C. Then `Cn1cccc1C(=O)Nc1ccc(-n2nc(C(F)(F)F)cc2C(F)(F)F)cc1`, with 148 to 149 °C. In turn, `O=S(=O)(c1ccccc1)c1ncc(Cl)cn1` gave a melting point of 103 °C.

Compound `CCN(CC)c1ccc(C(=O)NCCNC(=O)c2ccc(N(CC)CC)cc2)cc1` showed a melting point of 166 to 167 °C. For `CCOC12CC(C=C(C#N)COC)=CC=C1OCO2` (centres undefined) the value was 64 to 65 °C; for `CCOC(=O)C1=C(COCc2nnc(C)s2)NC(C)=C(C(=O)OC)C1c1cccc(Cl)c1Cl` (centres undefined), 140 to 144 °C. Compound `O=C1Cn2c(c(Br)c3ccccc32)-c2ccccc2N1` yielded a melting point of 247 to 249 °C. For `Cc1nc2ccccc2n1Cc1cc([N+](=O)[O-])ccc1O` the value was greater than 260 °C; for `N#Cc1cccc(Cc2c(-c3ccc(OC(F)F)c(OC4CC4)c3)[nH]c3cn[nH]c(=O)c23)c1`, 130 to 135 °C. For `CCOP(=O)(OCC)Oc1cc(C(C)C)c(NC(=O)CN2CCN(CCSc3nc4ccccc4o3)CC2)c(C(C)C)c1` the value was 108 to 109 °C.

`CCOC(=O)N[C@@H]1c2cc(C#N)ccc2OC(C)(C)[C@H]1O` (relative stereo): the melting point was 147 to 148 °C. For `NC(=O)CNc1ncccc1NC(=O)c1ccccn1` the value was 188 to 190 °C; for `N#CCc1cccc([N+](=O)[O-])c1[N+](=O)[O-]`, 88 to 90 °C. For `CC(C)P1(=O)c2ccccc2CN1Cc1ccccc1` (centres undefined) the value was 145 to 147 °C; for `CC(=O)Oc1ccc(C(=O)N2CCN(C(N)=O)C2=O)cc1OC(C)=O`, 222 to 224 °C. Then `COCc1cc(N(C)C)ncn1`, with 42 to 44 °C; and `COc1ccccc1CNc1ccc2cc(Nc3cccc(C(F)(F)F)n3)ccc2n1`, with 151 °C. `O=C(c1cccnc1)c1cccc(NC(=O)c2ccn3c2CSC3c2cccnc2)c1` (centres undefined): the melting point came out at 160 °C.

`COC(=O)c1cc(OC)c2c(c1)OCO2` came in with a melting point of 91 °C.

For `CC(C)(C)C1=CC(=CC#Cc2ccc(C(=O)O)c(O)c2)C=C(C(C)(C)C)C1=O`, the melting point came out at 203 °C. Then `CCCCCCCCCC1OC1CO` (centres undefined), with 55 to 56 °C. Regarding `CCC(C)OC(=O)C(C(=O)O)=C1SCS1` (centres undefined), the melting point lay in the range of 80 to 82 °C.

For `Cc1cccc(Cl)c1-n1nc(C(C)C)c(C#N)c1N`, the melting point is 116 to 118 °C.

Turning to `CCOC(=O)c1c(N)c2cccnc2n(C)c1=O`, the melting point lay in the range of 203 to 206 °C. Take `CC1CCCCC1C(=O)Nc1ccc(-c2cnc(-c3ccc(NC(=O)c4ccccn4)cc3)[nH]2)cc1` (centres undefined): the melting point was in the range of 227 to 229 °C.

`CC(=O)NC[C@H]1CN(c2ccc(N3CCC(O)(CC(N)=O)CC3)c(F)c2)C(=O)O1` yielded a melting point of 208 to 210 °C. In the case of `CN[C@@H](Cc1ccc(C(F)(F)F)cc1)[C@H](O)c1ccc(F)cc1` (racemic), the melting point was in the range of 79 to 80 °C.

`CC(C)NC1=NS(=O)(=O)c2cc(Cl)cc(Cl)c2N1`: the melting point was greater than 230 °C. For `CC(C)Cn1c(C(F)(F)F)nc2cc(F)c(-n3c(=O)cc(C(F)(F)F)n(C)c3=O)cc21` the value was 169 to 170 °C. Then `COc1ccnc(Cl)c1NS(=O)(=O)c1nc2cc(F)nc(OC)n2n1`, with 187 to 188 °C. Then `Fc1ccc(OCc2cccc(Oc3ccnc(Cl)c3)n2)cc1`, with 103 °C; and `Cc1[nH]c(C(=O)Nc2ccc3ncsc3c2)c(C)c1-c1nc2ccc(C(=O)c3ccccc3)cc2[nH]1`, with 155 to 157 °C. The compound `CN1CCC[C@H]1c1cnc(Cl)cc1P(C(C)(C)C)C(C)(C)C` returned a melting point of 125 to 127 °C.

In turn, `O=S1(=O)OCCN1Cc1ccccc1Cl` returned a melting point of 61 to 62.5 °C. Then `FC(F)(F)c1ccc2nc(N3CCN(c4ncccc4C(F)(F)F)CC3)n(Cc3ccccc3)c2c1`, with 154 to 157 °C; and `COc1cc2c(cc1C(F)(F)F)N(C(=O)Nc1cccc(S(=O)(=O)Nc3cccnc3)c1)CC2`, with greater than 215 °C; and `O=C(NCCn1ccnc1)c1cc2cc(Cl)ccc2[nH]1`, with 167 to 169 °C.

For the compound `COc1ccc(S(=O)(=O)C(C)(Cc2ccccc2Br)C(=O)NO)cc1` (centres undefined), the melting point was in the range of 93 to 96 °C. The compound `O=C(O)c1ccc(-c2ccc(NS(=O)(=O)C(F)(F)F)cc2)[nH]c1=O` returned a melting point greater than 260 °C. Then `O=C(c1cccc(Cl)c1)N1CCCN(CC2=Nc3cccc4c(=O)[nH]nc(c34)N2)CC1`, with 147 to 149 °C; and `CNC(=O)CCn1cnc2c(N)nc3ccccc3c21`, with greater than 260 °C; and `O=S(CCCc1nc(-c2ccc(F)cc2)c(-c2ccncc2)[nH]1)c1ccccc1` (centres undefined), with 146 to 148 °C. Then `CC(=O)OCc1coc(-c2cccc(C3=Nc4ccc(-n5cccc5)cc4NC(=O)C3)c2)n1`, with 206 to 207 °C; and `CCOC(=O)c1sc(N2CCNC2=O)nc1C`, with 197 to 199 °C; and `c1cnc(N2CCN(Cc3ccc4c(c3)SCO4)CC2)nc1`, with 90 to 91 °C. The compound `NC(=O)[C@H](NCc1ccccc1)[C@@H]1CSC(=O)N1Cc1ccccc1` showed a melting point of 194 to 195 °C. For `COc1ccc2c(c1)CN(Nc1ccncc1)CC2` the value was 188 to 189 °C; for `C#CCOc1cc(-n2c(OC)nc(C(F)(F)F)cc2=O)c(F)cc1Br`, 136 to 138 °C; for `CN1CCC(c2c[nH]c3ccc(NC(=O)c4ccc(F)cc4Cl)cc23)CC1`, 159 to 162 °C.

The compound `CC1(C)OC(CS(=O)(=O)c2ccc(Cl)cc2)=CC1=O` yielded a melting point of 112 to 113 °C.

In turn, `O=Cc1ccc(Cl)cc1O` yielded a melting point of 47 to 48 °C. Then `CC(C)n1c(=O)[nH]c2c(C(N)=O)nc(-c3cccc(O)c3)nc21`, with 338 to 342 °C; and `CCOC(=O)N1C(=O)OC(c2c(Cl)cccc2OC)C1=O` (centres undefined), with 196 to 200 °C. For `FC(F)(F)c1cc(-c2ccnc(Nc3ccc4c(c3)OCCO4)c2)cc(C(F)(F)F)c1` the value was 130 to 132 °C; for `COc1ccc(Oc2ccc(Cl)cc2[N+](=O)[O-])c(C=O)c1`, 127 to 128 °C; for `CCOC(=O)c1cccc2nc(OCC)n(Cc3ccc(-c4ccccc4-c4nnn[nH]4)cc3)c12`, 158 to 159 °C.

In turn, `COc1ccc(C=O)cc1OCc1nc(-c2ccccc2)oc1C` gave a melting point of 121 to 122 °C. Regarding `Cn1c(C(F)(F)F)cc(=O)n(-c2ccc(Cl)c(C(=O)O)c2)c1=O`, the melting point was 235 to 236 °C.

Take `CN(C)Cc1ccccc1-c1ccc(N2CCc3c(C(F)(F)F)nn(-c4cccc(C(N)=O)c4)c3C2=O)cc1`: the melting point is 259 °C.

Compound `O=CC(=Cc1ccccc1Br)C(C=O)=Cc1ccccc1Br` displayed a melting point of 194 to 195 °C. As to `CC(C)S(=O)(=O)NCC(C)(F)c1ccc(-c2cccc3c2CC(=O)N3)cc1` (centres undefined), the melting point fell in the range of 86 to 87 °C. Then `COC(=O)c1cc(=O)c2oc3ccc(Cl)cc3c(=O)c2[nH]1`, with 300 to 305 °C. With `CCCCNC(=O)NS(=O)(=O)c1cccc2c1CCCC2`, the melting point was in the range of 173 to 175 °C. Then `Cc1cc(N)nc(CCc2nc3cc(Br)cnc3[nH]2)c1`, with 216 °C; and `COc1ccc2nc(NC(=O)C(CC3CCCC3)c3ccc(S(=O)(=O)N(C(C)C)C(C)C)cc3)sc2n1` (centres undefined), with 83 to 85 °C; and `O=C(NCc1ccc(Cl)cc1)c1coc2ccc(C#CCO)cc2c1=O`, with 182 to 183 °C. Then `Cc1cccc(C(=O)OC2CCN(Cc3ccccc3)CC2)c1`, with 45 to 46 °C.

In turn, `CCOC(=O)CCCCCCC(=O)Nc1ccc2c(c1)C(c1ccccc1)=N[C@@H](C)C(=O)N2C` had a melting point of 55 to 56 °C.

For the compound `Nc1ccc2c(c1)-c1ccccc1S2=O` (centres undefined), the melting point is 169 to 172 °C. For `COc1ccc(C(C)=NNc2ccc(C3=NNC(=O)CC3)cc2)cc1`, the melting point was 204 to 207 °C. As to `CC(C)(C)c1csc(-c2cc3cc(CSc4ccccc4C(=O)O)ccc3o2)n1`, the melting point was 205 to 207 °C.

For `Cc1nc(NC(=O)CC2CC2)sc1C(=O)NCc1ccccc1`, the melting point was 136 to 139 °C.

The compound `C[C@H]1[C@@H](C#N)CCN1c1ccc(C#N)c2ccccc12` gave a melting point of 143 to 145 °C. As to `COc1cc(Nc2nc3cccc(-c4ccc5ncccc5c4)c3o2)cc(OC)c1OC`, the melting point was in the range of 187 to 190 °C.

In turn, `C[Si](C)(C)Oc1ccc(SSc2ccc(O[Si](C)(C)C)cc2)cc1` showed a melting point of 21 to 22 °C. Then `Cc1c(Cc2cccc(C(F)(F)F)c2)oc2c(-c3cccc(C(=O)O)c3)cccc12`, with 200 to 201 °C; and `COc1cc(C(=O)CCCC2CCCCC2)c(OC)cc1C`, with 53.5 to 54.5 °C. For `O=C(O)C(O)c1cccs1` (centres undefined) the value was 75 °C.

In turn, `Clc1ccc(C2=CCCC2)cc1` displayed a melting point of 71 to 73 °C. The compound `CCCCCCNC(=O)c1cccc2c1C1(COc3cc4c(cc31)OCCO4)C(=O)N2C` (centres undefined) displayed a melting point of 172 to 173 °C. Consider `C=CCn1c(C)c(C)c2cnnc(OCc3ccc(F)cc3)c21`, for which the melting point lay in the range of 125 to 126 °C. Then `COc1ccc(-c2cc(=O)n(Cc3ccc(F)c(F)c3)nc2-c2ccc(OC)cc2)cc1`, with 155 to 156 °C; and `Cc1nc(O)c([N+](=O)[O-])c(N2CCc3cncnc3CC2)n1`, with greater than 200 °C.
